Measurements: patent publication US8217029B2, “Oxazolidinone antibiotics” (Actelion Pharmaceuticals Ltd, priority 2007, dated 2012)
≈ marks a conversion by molar mass, not a printed value.

System: S aureus A798
Assay: Minimal inhibitory concentration (MIC), microdilution method in cation-adjusted Mueller-Hinton Broth following NCCLS guidelines
Format: cell-based
Conditions: pH of test medium 7.2-7.3
Method in brief: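 MICs (mg/l) came from NCCLS-guided microdilution, using cation-adjusted Mueller-Hinton medium adjusted to pH 7.2-7.3.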

COc1ccc2nccc(N3CC(NC[C@@H]4CN(c5ccc6c(c5)NC(=O)CS6)C(=O)O4)C3)c2c1 [Example 49, 6-((R)-5-{[1-(6-Methoxy-quinolin-4-yl)-azetidin-3-ylamino]-methyl}-2-oxo-oxazolidin-3-yl)-4H-benzo[1,4]thiazin-3-one] and COc1ccc2ncnc(N3CC(NC[C@@H]4CN(c5ccc6c(c5)NC(=O)CS6)C(=O)O4)C3)c2c1 [Example 55, 6-((R)-5-{[1-(6-Methoxy-quinazolin-4-yl)-azetidin-3-ylamino]-methyl}-2-oxo-oxazolidin-3-yl)-4H-benzo[1,4]thiazin-3-one] cannot be ordered by MIC: ≤ 0.031 µg/mL for the first, ≤ 0.031 µg/mL for the second.

Going from COc1ccc2nccc(N3CC(NC[C@@H]4CN(c5ccc(C)c(F)c5)C(=O)O4)C3)c2n1 [Example 50, (R)-3-(3-Fluoro-4-methyl-phenyl)-5-{[1-(6-methoxy-[1,5]naphthyridin-4-yl)-azetidin-3-ylamino]-methyl}-oxazolidin-2-one] to COc1ccc2nccc(N3CC[C@H](NC[C@@H]4CN(c5ccc(C)c(F)c5)C(=O)O4)C3)c2n1 [Example 67, (R)-3-(3-Fluoro-4-methyl-phenyl)-5-{[(S)-1-(6-methoxy-[1,5]naphthyridin-4-yl)-pyrrolidin-3-ylamino]-methyl}-oxazolidin-2-one], the MIC rises from ≤ 0.031 µg/mL to 0.063 µg/mL (≈ 0.14 µM).

COc1ccc2nccc(N3CC(NC[C@@H]4CN(c5ccc6c(c5)OCCO6)C(=O)O4)C3)c2n1 [Example 51, (R)-3-(2,3-Dihydro-benzo[1,4]dioxin-6-yl)-5-{[1-(6-methoxy-[1,5]naphthyridin-4-yl)-azetidin-3-ylamino]-methyl}-oxazolidin-2-one] and COc1ccc2nccc(N3CC(NC[C@@H]4CN(c5ccc6c(c5)NC(=O)CO6)C(=O)O4)C3)c2n1 [Example 52, 6-((R)-5-{[1-(6-Methoxy-[1,5]naphthyridin-4-yl)-azetidin-3-ylamino]-methyl}-2-oxo-oxazolidin-3-yl)-4H-benzo[1,4]oxazin-3-one] cannot be ordered by MIC: ≤ 0.031 µg/mL for the first, ≤ 0.031 µg/mL for the second.

COc1ccc2nccc(N3CC(NC[C@@H]4CN(c5ccc6c(c5)NC(=O)CS6)C(=O)O4)C3)c2n1 [Example 53, 6-((R)-5-{[1-(6-Methoxy-[1,5]naphthyridin-4-yl)-azetidin-3-ylamino]-methyl}-2-oxo-oxazolidin-3-yl)-4H-benzo[1,4]thiazin-3-one] and COc1ccc2nccc(N3CC(NC[C@H]4CN(c5ccc6c(c5)NC(=O)CS6)C(=O)O4)C3)c2n1 [Example 57, 6-((S)-5-{[1-(6-Methoxy-[1,5]naphthyridin-4-yl)-azetidin-3-ylamino]-methyl}-2-oxo-oxazolidin-3-yl)-4H-benzo[1,4]thiazin-3-one] cannot be ordered by MIC: ≤ 0.031 µg/mL for the first, ≤ 0.031 µg/mL for the second.

COc1ccc2ncnc(N3CC(NC[C@@H]4CN(c5ccc6c(c5)NC(=O)CO6)C(=O)O4)C3)c2c1 [Example 54, 6-((R)-5-{[1-(6-Methoxy-quinazolin-4-yl)-azetidin-3-ylamino]-methyl}-2-oxo-oxazolidin-3-yl)-4H-benzo[1,4]oxazin-3-one] and COc1ccc2nccc(N3CC[C@H](NC[C@@H]4CN(c5ccc6c(c5)NC(=O)CO6)C(=O)O4)C3)c2n1 [Example 69, 6-((R)-5-{[(S)-1-(6-Methoxy-[1,5]naphthyridin-4-yl)-pyrrolidin-3-ylamino]-methyl}-2-oxo-oxazolidin-3-yl)-4H-benzo[1,4]oxazin-3-one] cannot be ordered by MIC: ≤ 0.031 µg/mL for the first, ≤ 0.031 µg/mL for the second.

COc1ccc2nccc(N3CC(N(C)C[C@@H]4CN(c5ccc6c(c5)NC(=O)CS6)C(=O)O4)C3)c2n1 [Example 56, 6-[(R)-5-({[1-(6-Methoxy-[1,5]naphthyridin-4-yl)-azetidin-3-yl]-methyl-amino}-methyl)-2-oxo-oxazolidin-3-yl]-4H-benzo[1,4]thiazin-3-one] and COc1ccc2nccc(N3CC(CNC[C@H]4CN(c5ccc6c(c5)NC(=O)CS6)C(=O)O4)C3)c2n1 [Example 59, 6-[(S)-5-({[1-(6-Methoxy-[1,5]naphthyridin-4-yl)-azetidin-3-ylmethyl]-amino}-methyl)-2-oxo-oxazolidin-3-yl]-4H-benzo[1,4]thiazin-3-one] cannot be ordered by MIC: ≤ 0.031 µg/mL for the first, ≤ 0.031 µg/mL for the second.

COc1ccc2nccc(N3CC[C@H](NC(=O)[C@@H]4CN(c5ccc6c(c5)OCCO6)C(=O)O4)C3)c2n1 [Example 60, (S)-3-(2,3-Dihydro-benzo[1,4]dioxin-6-yl)-2-oxo-oxazolidine-5-carboxylic acid [(S)-1-(6-methoxy-[1,5]naphthyridin-4-yl)-pyrrolidin-3-yl]-amide] and COc1ccc2nccc(N3CC[C@@H](NC(=O)[C@@H]4CN(c5ccc6c(c5)OCCO6)C(=O)O4)C3)c2n1 [Example 61, (S)-3-(2,3-Dihydro-benzo[1,4]dioxin-6-yl)-2-oxo-oxazolidine-5-carboxylic acid [(R)-1-(6-methoxy-[1,5]naphthyridin-4-yl)-pyrrolidin-3-yl]-amide] cannot be ordered by MIC: ≤ 0.031 µg/mL for the first, ≤ 0.031 µg/mL for the second.

Going from COc1ccc2nccc(N3CC[C@@H](NC(=O)[C@@H]4CN(c5ccc(C)c(F)c5)C(=O)O4)C3)c2n1 [Example 62, (S)-3-(3-Fluoro-4-methyl-phenyl)-2-oxo-oxazolidine-5-carboxylic acid [(R)-1-(6-methoxy-[1,5]naphthyridin-4-yl)-pyrrolidin-3-yl]-amide] to COc1ccc2nccc(N3CC[C@H](NC(=O)[C@@H]4CN(c5ccc(C)c(F)c5)C(=O)O4)C3)c2n1 [Example 63, (S)-3-(3-Fluoro-4-methyl-phenyl)-2-oxo-oxazolidine-5-carboxylic acid [(S)-1-(6-methoxy-[1,5]naphthyridin-4-yl)-pyrrolidin-3-yl]-amide], the MIC rises from ≤ 0.031 µg/mL to 0.25 µg/mL (≈ 0.537 µM).

COc1ccc2ncc(F)c(N3CC[C@H](NC[C@@H]4CN(c5ccc6c(c5)NC(=O)CO6)C(=O)O4)C3)c2n1 [Example 64, 6-((R)-5-{[(S)-1-(3-Fluoro-6-methoxy-[1,5]naphthyridin-4-yl)-pyrrolidin-3-ylamino]-methyl}-2-oxo-oxazolidin-3-yl)-4H-benzo[1,4]oxazin-3-one] and COc1ccc2ncc(F)c(N3CC[C@H](NC[C@@H]4CN(c5ccc6c(c5)NC(=O)CS6)C(=O)O4)C3)c2n1 [Example 65, 6-((R)-5-{[(S)-1-(3-Fluoro-6-methoxy-[1,5]naphthyridin-4-yl)-pyrrolidin-3-ylamino]-methyl}-2-oxo-oxazolidin-3-yl)-4H-benzo[1,4]thiazin-3-one] cannot be ordered by MIC: ≤ 0.031 µg/mL for the first, ≤ 0.031 µg/mL for the second.

Going from COc1ccc2nccc(N3CC[C@@H](NC[C@@H]4CN(c5ccc(C)c(F)c5)C(=O)O4)C3)c2n1 [Example 68, (R)-3-(3-Fluoro-4-methyl-phenyl)-5-{[(R)-1-(6-methoxy-[1,5]naphthyridin-4-yl)-pyrrolidin-3-ylamino]-methyl}-oxazolidin-2-one] to COc1ccc2nccc(N3CC[C@H](NC[C@@H]4CN(c5ccc6c(c5)NC(=O)CS6)C(=O)O4)C3)c2n1 [Example 70, 6-((R)-5-{[(S)-1-(6-Methoxy-[1,5]naphthyridin-4-yl)-pyrrolidin-3-ylamino]-methyl}-2-oxo-oxazolidin-3-yl)-4H-benzo[1,4]thiazin-3-one], the MIC falls from 0.063 µg/mL (≈ 0.14 µM) to ≤ 0.031 µg/mL.

COc1ccc2nccc(N3CC[C@@H](NC[C@@H]4CN(c5ccc6c(c5)NC(=O)CS6)C(=O)O4)C3)c2n1 [Example 71, 6-((R)-5-{[(R)-1-(6-Methoxy-[1,5]naphthyridin-4-yl)-pyrrolidin-3-ylamino]-methyl}-2-oxo-oxazolidin-3-yl)-4H-benzo[1,4]thiazin-3-one] and COc1ccc2nccc(N3CC[C@@H](NC[C@@H]4CN(c5ccc6c(c5)NC(=O)CO6)C(=O)O4)C3)c2n1 [Example 72, 6-((R)-5-{[(R)-1-(6-Methoxy-[1,5]naphthyridin-4-yl)-pyrrolidin-3-ylamino]-methyl}-2-oxo-oxazolidin-3-yl)-4H-benzo[1,4]oxazin-3-one] cannot be ordered by MIC: ≤ 0.031 µg/mL for the first, ≤ 0.031 µg/mL for the second.

First: COc1ccc2nccc(N3C[C@H](NC(=O)[C@@H]4CN(c5ccc6c(c5)OCCO6)C(=O)O4)C[C@H]3CO)c2n1 [Example 78, (S)-3-(2,3-Dihydro-benzo[1,4]dioxin-6-yl)-2-oxo-oxazolidine-5-carboxylic acid [(3R,5S)-5-hydroxymethyl-1-(6-methoxy-[1,5]naphthyridin-4-yl)-pyrrolidin-3-yl]-amide]
Second: COc1ccc2nccc(N3C[C@H](NC[C@@H]4CN(c5ccc6c(c5)NC(=O)CS6)C(=O)O4)C[C@H]3CO)c2n1 [Example 79, 6-((R)-5-{[(3R,5S)-5-Hydroxymethyl-1-(6-methoxy-[1,5]naphthyridin-4-yl)-pyrrolidin-3-ylamino]-methyl}-2-oxo-oxazolidin-3-yl)-4H-benzo[1,4]thiazin-3-one]
The MIC of the first is lower: ≤ 0.031 µg/mL for the first, 0.25 µg/mL (≈ 0.466 µM) for the second.

COc1ccc2nccc(N3CCN(C[C@@H]4CN(c5ccc6c(c5)NC(=O)CO6)C(=O)O4)CC3)c2n1 [Example 96, 6-{(R)-5-[4-(6-Methoxy-[1,5]naphthyridin-4-yl)-piperazin-1-ylmethyl]-2-oxo-oxazolidin-3-yl}-4H-benzo[1,4]oxazin-3-one] and COc1ccc2ncc(F)c(N3CCN(C[C@@H]4CN(c5ccc6c(c5)NC(=O)CO6)C(=O)O4)CC3)c2n1 [Example 97, 6-{(R)-5-[4-(3-Fluoro-6-methoxy-[1,5]naphthyridin-4-yl)-piperazin-1-ylmethyl]-2-oxo-oxazolidin-3-yl}-4H-benzo[1,4]oxazin-3-one] cannot be ordered by MIC: ≤ 0.031 µg/mL for the first, ≤ 0.031 µg/mL for the second.

In the case of COc1ccc2ncc(F)c(N3CC[C@H](NC[C@@H]4CN(c5ccc6c(c5)OCCO6)C(=O)O4)C3)c2n1 [Example 66, (R)-3-(2,3-Dihydro-benzo[1,4]dioxin-6-yl)-5-{[(5)-1-(3-fluoro-6-methoxy-[1,5]naphthyridin-4-yl)-pyrrolidin-3-ylamino]-methyl}-oxazolidin-2-one], the “MIC S aureus A798” value is reported as “<=0.031 mg/l”.
With COc1ccc2nccc(N3CC4C(C3)C4NC[C@@H]3CN(c4ccc5c(c4)NC(=O)CS5)C(=O)O3)c2n1 (stereo partly drawn) [Example 89, 6-((R)-5-{[(1α,5α,6α)-3-(6-Methoxy-[1,5]naphthyridin-4-yl)-3-aza-bicyclo[3.1.0]hex-6-ylamino]-methyl}-2-oxo-oxazolidin-3-yl)-4H-benzo[1,4]thiazin-3-one] the “MIC S aureus A798” value was “<=0.031 mg/l”.

COc1ccc2nccc(N3CC4C(C3)C4NC[C@@H]3CN(c4ccc(C)c(F)c4)C(=O)O3)c2n1 (stereo partly drawn) [Example 88, (R)-3-(3-Fluoro-4-methyl-phenyl)-5-{[(1a,5a,6a)-3-(6-methoxy-[1,5]naphthyridin-4-yl)-3-aza-bicyclo[3.1.0]hex-6-ylamino]-methyl}-oxazolidin-2-one] was tested, and the “MIC S aureus A798” value was 0.125 mg/L (≈ 0.27 µM).
